Data: patent US12622966B2, “Compound for photothermal cancer therapy, composition including the same, and method for photothermal cancer therapy” (PUKYONG NATIONAL UNIVERSITY INDUSTRY-UNIVERSITY COOPERATION …, priority 2022, dated 2026)

Assays:
[1] = UV-Vis absorption in DMSO; type: physicochemical; conditions: for λabs, absorption wavelength: in DMSO
Protocol: FIG. 2 illustrates UV-Vis absorption (solid line) and fluorescence emission (dotted line) spectra of NI1 (60 μM) and NI2 (40 μM) in DMSO according to an embodiment of the present disclosure;
In the UV-Vis spectrum of FIG. 2 and Table 1, an absorption peak of NI1 has a tendency of red-shift absorption (λabs=728 nm, in DMSO) compared to NI2 (λabs=690 nm, in DMSO) in an organic solvent. […] The molar absorption coefficient (8) of NI1 is relatively lower than that of NI2, which generates a conjugate in a free pair of electrons of an —NH group due to the introduction of a phenyl group in NI2 and may reduce an ICT effect from an electron donor group to an electron acceptor group compared to NI1.

[2] = Photothermal conversion efficiency; type: physicochemical; parameters: η (THF), photothermal conversion efficiency: concentration or dose not given beside the values; conditions: for η (DMSO), photothermal conversion efficiency: in DMSO; for η (THF), photothermal conversion efficiency: in THF; for η (NPs), photothermal conversion efficiency: nanoparticles (nanoaggregates)
Protocol: FIGS. 3A, 3B, and 3C relate to the thermal reaction of NI2 NPs according to 691 nm laser irradiation at 1 W/cm^2 and 1.5 W/cm^2 according to an embodiment of the present disclosure. FIG. 3A illustrates temperature rise measured in NI2 NPs at various concentrations (0 for distilled water, 25, 50, 75, and 100 μM) after irradiation for 150 seconds (N=4); FIG. 3B illustrates photothermal convergence efficiency (PCE) of NI2 NPs (100 μM) in 4 ON/OFF cycles of laser irradiation (ON/OFF time=150 s/450 s; duty cycle=25%); and FIG. 3C illustrates infrared thermal images of NI2 NPs (100 μM) captured at various irradiation times (scale bar=5 mm);
FIGS. 3A, 3B and 3C show quantitative analysis results of the photothermal characteristics and photothermal conversion efficiency of NI2 nanoparticles according to various concentrations and laser irradiation times in a 691 nm laser (1 W/cm^2 and 1.5 W/cm^2) irradiation of NI2 nanoparticles. When the concentration of the NI2 solution (in D.W.) was changed from 0 to 100 μM, it could be seen that the temperature increased in proportion to the concentration when the temperature change of the NI2 solution was measured after absorption for 150 seconds. That is, in FIG. 3A, it may be seen that a temperature increase (ΔT) changes linearly after irradiation for 150 seconds (R^2=0.98 to 0.99), and the maximum temperature of the NI2 NP was 42.8±2.8° C. and 54.4±0.5° C. for 1 W/cm^2 and 1.5 W/cm^2 at 100 μM, respectively. […] In FIG. 3C, it may be seen in the captured sequential thermal images showing the “spatio-temporal distribution” in the temperature area.

Compound | ε, molar absorption coefficient [1] | λabs, absorption wavelength [1] [nm] | η (DMSO), photothermal conversion efficiency [2] [%] | η (THF), photothermal conversion efficiency [2] [%] | η (NPs), photothermal conversion efficiency [2] [%]
CNc1ccc(N=C2C(=C(C#N)C#N)c3ccccc3C2=C(C#N)C#N)cc1 [NI1] | 12.0 ×10^3 | 728 | 50.3 | 31.4 | 58.3
N#CC(C#N)=C1C(=Nc2ccc(Nc3ccccc3)cc2)C(=C(C#N)C#N)c2ccccc21 [NI2] | 15.6 ×10^3 | 690 | 52.1 | 32.4 | 92.5
